Results taken from ChEMBL document CHEMBL3526036, “Hepatic pharmacokinetics of cationic drugs in a high-fat emulsion-induced rat model of nonalcoholic steatohepatitis” (Drug Metab Dispos, 2011).
Each block holds one compound with its values, some of them ahead of it.

Experiments:
Liver [1] = assay: Apparent distribution ratio of the compound in perfused liver of high-fat emulsion-induced nonalcoholic steatohepatitis Wistar rat at 4 mM after 10 mins; assay type: ADME, tissue-based; details: 4000 µM
Liver [2] = assay: Mean transit time of the compound in healthy Wistar rat perfused liver at 4 mM after 10 mins; assay type: ADME, tissue-based; details: 4000 µM
[3] = Octanol-water apparent partition coefficient, logD of the compound at pH 7.4; assay type: physicochemical
[4] = Extraction ratio of the compound in perfused liver of high-fat emulsion-induced nonalcoholic steatohepatitis Wistar rat at 4 mM after 10 mins; assay type: ADME, tissue-based; details: read-out: ERH
[5] = Dissociation constant, pKa of the compound; assay type: physicochemical
Liver [6] = assay: Mean transit time of the compound in perfused liver of high-fat emulsion-induced nonalcoholic steatohepatitis Wistar rat at 4 mM after 10 mins; assay type: ADME, tissue-based; details: 4000 µM
[7] = Extraction ratio of the compound in healthy Wistar rat perfused liver at 4 mM after 10 mins; assay type: ADME, tissue-based; details: read-out: ERH
Liver [8] = assay: Apparent distribution ratio of the compound in healthy Wistar rat perfused liver at 4 mM after 10 mins; assay type: ADME, tissue-based; details: 4000 µM
Liver [9] = assay: Mean transit time of the compound in healthy Wistar rat perfused liver at 6 mM after 10 mins; assay type: ADME, tissue-based; details: 6000 µM
in vitro [10] = details: Wistar, rat, perfused liver
Description: Extraction ratio of the compound in healthy Wistar rat perfused liver at 6 mM after 10 mins

in vitro [11] = details: Wistar, rat, perfused liver; remark: listed apart in the source
Description: Extraction ratio of the compound in perfused liver of high-fat emulsion-induced nonalcoholic steatohepatitis Wistar rat at 6 mM after 10 mins

Liver [12] = assay: Drug distribution in perfused liver of high-fat emulsion-induced nonalcoholic steatohepatitis Wistar rat assessed as equilibrium amount ratio charactering slow binding process at 6 mM after 10 mins; assay type: ADME, tissue-based; details: in vivo, 6000 µM
Liver [13] = assay: Mean transit time of the compound in perfused liver of high-fat emulsion-induced nonalcoholic steatohepatitis Wistar rat at 6 mM after 10 mins; assay type: ADME, tissue-based; details: 6000 µM
Liver [14] = assay: Apparent distribution ratio of the compound in perfused liver of high-fat emulsion-induced nonalcoholic steatohepatitis Wistar rat at 6 mM after 10 mins; assay type: ADME, tissue-based; details: 6000 µM
Liver [15] = assay: Drug distribution in perfused liver of high-fat emulsion-induced nonalcoholic steatohepatitis Wistar rat assessed as equilibrium amount ratio charactering fast binding process at 6 mM after 10 mins; assay type: ADME, tissue-based; details: in vivo, 6000 µM
Liver [16] = assay: Drug distribution in healthy Wistar rat perfused liver assessed as equilibrium amount ratio charactering slow binding process at 6 mM after 10 mins; assay type: ADME, tissue-based; details: in vivo, 6000 µM
Liver [17] = assay: Drug distribution in healthy Wistar rat perfused liver assessed as equilibrium amount ratio charactering fast binding process at 6 mM after 10 mins; assay type: ADME, tissue-based; details: in vivo, 6000 µM
Liver [18] = assay: Apparent distribution ratio of the compound in healthy Wistar rat perfused liver at 6 mM after 10 mins; assay type: ADME, tissue-based; details: 6000 µM
Liver [19] = assay: Mean transit time of the compound in perfused liver of high-fat emulsion-induced nonalcoholic steatohepatitis Wistar rat at 3 mM after 10 mins; assay type: ADME, tissue-based; details: 3000 µM
Liver [20] = assay: Mean transit time of the compound in healthy Wistar rat perfused liver at 3 mM after 10 mins; assay type: ADME, tissue-based; details: 3000 µM
Liver [21] = assay: Drug distribution in healthy Wistar rat perfused liver assessed as equilibrium amount ratio charactering slow binding process at 3 mM after 10 mins; assay type: ADME, tissue-based; details: in vivo, 3000 µM
Liver [22] = assay: Apparent distribution ratio of the compound in perfused liver of high-fat emulsion-induced nonalcoholic steatohepatitis Wistar rat at 3 mM after 10 mins; assay type: ADME, tissue-based; details: 3000 µM
Liver [23] = assay: Apparent distribution ratio of the compound in healthy Wistar rat perfused liver at 8 mM after 10 mins; assay type: ADME, tissue-based; details: 8000 µM
Liver [24] = assay: Apparent distribution ratio of the compound in perfused liver of high-fat emulsion-induced nonalcoholic steatohepatitis Wistar rat at 8 mM after 10 mins; assay type: ADME, tissue-based; details: 8000 µM
Liver [25] = assay: Drug distribution in healthy Wistar rat perfused liver assessed as equilibrium amount ratio charactering fast binding process at 8 mM after 10 mins; assay type: ADME, tissue-based; details: in vivo, 8000 µM
Liver [26] = assay: Mean transit time of the compound in perfused liver of high-fat emulsion-induced nonalcoholic steatohepatitis Wistar rat at 8 mM after 10 mins; assay type: ADME, tissue-based; details: 8000 µM
Liver [27] = assay: Drug distribution in perfused liver of high-fat emulsion-induced nonalcoholic steatohepatitis Wistar rat assessed as equilibrium amount ratio charactering fast binding process at 8 mM after 10 mins; assay type: ADME, tissue-based; details: in vivo, 8000 µM
Liver [28] = assay: Drug distribution in healthy Wistar rat perfused liver assessed as equilibrium amount ratio charactering slow binding process at 8 mM after 10 mins; assay type: ADME, tissue-based; details: in vivo, 8000 µM
Liver [29] = assay: Mean transit time of the compound in healthy Wistar rat perfused liver at 8 mM after 10 mins; assay type: ADME, tissue-based; details: 8000 µM
Liver [30] = assay: Drug distribution in perfused liver of high-fat emulsion-induced nonalcoholic steatohepatitis Wistar rat assessed as equilibrium amount ratio charactering slow binding process at 8 mM after 10 mins; assay type: ADME, tissue-based; details: in vivo, 8000 µM

SMILES: Cc1cc(=O)n(-c2ccccc2)n1C [ANTIPYRINE]
K (Liver [1]): 4.5
MTT (Liver [2]): 46.46 s
logD ([3]; read-out: LogD7.4): 0.33
hepatic extraction ratio at 10 min, 4000 µM [4]: 0.08
pKa [5]: 1.45
MTT (Liver [6]): 64.12 s
hepatic extraction ratio at 10 min, 4000 µM [7]: 0.16
K (Liver [8]): 2.67

K (Liver [1]): 12.51
MTT (Liver [2]): 13.12 s
MTT (Liver [6]): 18.63 s
K (Liver [8]): 9.9
SMILES: CC(C)NCC(O)COc1ccc(CC(N)=O)cc1 (stereo unspecified) [ATENOLOL]

MTT (Liver [9]): 29.1 s
hepatic extraction ratio at 10 min, 6000 µM (in vitro [10]): 0.86
hepatic extraction ratio at 10 min, 6000 µM (in vitro [11]): 0.79
K (Liver [12]): 11.81
LogD7.4 [3]: 2.69
MTT (Liver [13]): 33.98 s
K (Liver [14]): 10.94
K (Liver [15]): 1.94
K (Liver [16]): 6.78
K (Liver [17]): 1.08
K (Liver [18]): 6.45
SMILES: CC(CCc1ccccc1)NCC(O)c1ccc(O)c(C(N)=O)c1 (stereo unspecified) [LABETALOL]

MTT (Liver [19]): 67.43 s
LogD7.4 [3]: 1.79
MTT (Liver [20]): 60.26 s
K (Liver [21]): 2.27
K (Liver [22]): 11.97
SMILES: COCCc1ccc(OCC(O)CNC(C)C)cc1 (stereo unspecified) [METOPROLOL]

K (Liver [23]): 10.76
K (Liver [24]): 16.31
K (Liver [25]): 1.96
MTT (Liver [26]): 70.99 s
K (Liver [27]): 0.38
K (Liver [28]): 13.59
MTT (Liver [29]): 58.14 s
K (Liver [30]): 5.35
SMILES: CC(C)NCC(O)COc1cccc2ccccc12 (stereo unspecified) [PROPRANOLOL]
